The record followed here is patent publication US7960556B2, “Thiadiazole derivatives for the treatment of neuro-degenerative diseases” (NV reMYND, priority 2006, dated 2011).

This assay concerns α-synuclein cytotoxicity in M17-SYNwt cells. Kind of assay: α-synuclein cytotoxicity assay: LDH leakage from paraquat-treated M17-SYNwt neuroblastoma cells.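 As to all read-outs here: paraquat at 32 mM co-added with compound, 40 h exposure, LDH activity released into the culture medium measured, references are DMSO-only cells and paraquat plus DMSO cells.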 Conditions: Homo sapiens, Neuroblastoma cell; for Emax: read-out: % Inhib. In general terms: LDH leaks from cells whose membrane has failed.

Description: An α-synuclein expression plasmid was constructed by sub-cloning the NcoI/XhoI fragment from 212T-SYN(WT) (Griffioen et al., Biochem Biophys Acta (2006) 1762(3):312-318) containing the cDNA of human wild type α-synuclein correspondingly into a standard mammalian expression vector pcDNA3.1 (Invitrogen) resulting into the plasmid pcDNA3.1-SYNwt. Plasmids pcDNA3.1 and pcDNA3.1-SYNwt were transfected to human neuroblastoma cells (ATCC No. CRL-2267) and independent clonal lines with the plasmids stably integrated into the genome were selected. […] Over-expression of α-synuclein in M17-SYNwt cell lines was confirmed by Western analysis.
Due to the high levels of α-synuclein M17-SYNwt cells are exquisitely sensitivity to paraquat, a well-known risk factor of synuclein-dependent neuronal degeneration. In degenerated or dead cells lactate dehydrogenase (LDH) is leaked out of the cells into the extracellular environment due to a loss of plasma-membrane integrity. This principle was used to determine cytotoxicity by quantifying the level of leaked LDH into the growth medium.
The detailed method for determining α-synuclein cytotoxicity was as follows: From appropriate precultures of M17 and M17-SYN cells were seeded at 50,000 cells/cm^2 in Optimem Reduced Serum without phenol red (available from InVitrogen, Cat. 31985-047) supplemented with 5% fetal calf serum, 1 mM sodium pyruvate, 1× non-essential amino acids, 500 μg/ml G418 0,5× antibiotic/antimycotic. After 3 hours of incubation at 37° C./5% CO2 paraquat was added to the cells (final concentration of 32 mM), together with the test compound and the cells were further incubated for 40 hours. Subsequently, LDH activity was determined using Promega Cytotox 96 Non-Radioactive cytotoxicity assay, (Cat. G1780) according the instructions of the supplier.
In these experiments, the control group consisted of M17-SYNwt cells treated with DMSO, the untreated paraquat group consisted of M17-SYNwt cells treated with paraquat and DMSO, and the treated paraquat group consisted of M17-SYNwt cells treated with paraquat and the test compound dissolved in DMSO.

For the molecule `O=C(Cc1ccc(F)cc1)N1CCN(c2nc(Cc3ccc(F)cc3)ns2)CC1` [compound 2, 4-(4-fluorophenylacetyl),-1-[3-(4-fluorobenzyl)-1,2,4-thiadiazol-5-yl]piperazine], a half-maximal effect (EC50) was put at 250 nM and the Emax was 54%.
Taken in the same sequence, the figures for `O=S(=O)(c1ccc2ccccc2c1)N1CCN(c2nc(Cc3ccc(Cl)cc3)ns2)CC1` [compound 52, 1-[2-naphtylsulfonyl]-4-[3-(4-chlorobenzyl)-1,2,4-thiadiazol-5-yl]piperazine] were 100 nM and 104%.
The matching figures for `CCCCCc1ccc(C(=O)N2CCN(c3nc(Cc4ccc(C)cc4)ns3)CC2C)cc1` (stereo not drawn) [compound 134, 1-(4-pentylbenzoyl)-4-[3-(4-methylbenzyl)-1,2,4-thiadiazol-5-yl]-2-methylpiperazine]: 300 nM and 75%.
Taken in the same sequence, the figures for `COc1ccc(S(=O)(=O)N2CCN(c3nc(Cc4ccc(Cl)cc4)ns3)CC2)cc1` [compound 31, 1-[4-methoxyphenylsulfonyl]-4-[3-(4-chlorobenzyl)-1,2,4-thiadiazol-5-yl]piperazine] were 0.169 nM and 59%.
For the molecule `Cc1ccccc1C(=O)N1CCN(c2nc(Cc3ccc(F)cc3)ns2)CC1C` (stereo not drawn) [compound 140, 1-(2-methylbenzoyl)-4-[3-(4-fluorobenzyl)-1,2,4-thiadiazol-5-yl]-2-methylpiperazine], a half-maximal response (EC50) required 450 nM and the Emax turned out to be 56%.
The matching figures for `COc1ccc(S(=O)(=O)N2CCN(c3nc(Cc4ccc(Cl)cc4)ns3)CC2C)cc1` (stereo not drawn) [compound 51, 1-[4-methoxyphenylsulfonyl]-4-[3-(4-chlorobenzyl)-1,2,4-thiadiazol-5-yl]-2-methylpiperazine]: 1.35 nM and 94%.
For the molecule `CCCCc1ccc(C(=O)N2CCN(c3nc(Cc4ccc(C)cc4)ns3)CC2)cc1` [compound 182, 1-(4-butylbenzoyl)-4-[3-(4-methylbenzyl)-1,2,4-thiadiazol-5-yl]piperazine], the Emax is 57%.
Consider `O=C(NCCN1CCN(c2nc(Cc3ccc(Cl)cc3)ns2)CC1)c1cccc(F)c1` [compound 100, 3-fluoro-N-{2-[4-[3-(4-chlorobenzyl)-1,2,4-thiadiazol-5-yl]piperazin-1-yl]ethyl}benzamide], for which the response was half-maximal at 1790 nM (EC50) and the Emax amounted to 75%.
Regarding `COc1ccc(S(=O)(=O)N2CCN(c3nc(Cc4cccc(OC)c4)ns3)CC2C)cc1` (stereo not drawn) [compound 208, 1-[4-methoxyphenylsulfonyl]-4-[3-(3-methoxybenzyl)-1,2,4-thiadiazol-5-yl]-2-methyl-piperazine], the EC50 – broadly, the concentration that produces a half-maximal response – turned out to be 7.3 nM.
For the molecule `CCCCCCCCS(=O)(=O)N1CCN(c2nc(Cc3ccc(C)cc3)ns2)CC1` [compound 82, 1-(octylsulfonyl)-4-[3-(4-methylbenzyl)-1,2,4-thiadiazol-5-yl]piperazine], it took 1580 nM to reach a half-maximal effect (EC50) and the Emax stood at 50%.
The matching figures for `CC1CN(c2nc(Cc3ccc(F)cc3)ns2)CCN1C(=O)c1cccc(Cl)c1` (stereo not drawn) [compound 122, 1-(3-chlorobenzoyl)-4-[3-(4-fluorobenzyl)-1,2,4-thiadiazol-5-yl]-2-methylpiperazine]: 140 nM and 92%.
Regarding `Cc1ccc(Cc2nsc(N3CCN(C(=O)c4ccc(C(F)(F)F)cc4)CC3)n2)cc1` [compound 171, 1-(4-trifluoromethylbenzoyl)-4-[3-(4-methylbenzyl)-1,2,4-thiadiazol-5-yl]piperazine], the Emax was 86%.
Turning to `Cc1ccc(Cc2nsc(N3CCN(S(=O)(=O)c4ccc(Br)cc4)CC3)n2)cc1` [compound 64, 1-[4-bromophenylsulfonyl]-4-[3-(4-methylbenzyl)-1,2,4-thiadiazol-5-yl]piperazine], the Emax stood at 58%.
`Cc1ccc(Cc2nsc(N3CCN(S(=O)(=O)c4ccc(C(C)(C)C)cc4)C(C)C3)n2)cc1` (stereo not drawn) [compound 42, 1-[4-tert-butylphenylsulfonyl]-4-[3-(4-methylbenzyl)-1,2,4-thiadiazol-5-yl]-2-methylpiperazine]: the concentration giving a half-maximal response (EC50) amounted to 870 nM and the Emax is 33%.
In the case of `O=C(/C=C/c1ccccc1)N1CCN(c2nc(Cc3ccc(Cl)cc3)ns2)CC1` [compound 88, [(2E)-3-phenylprop-2-enoyl]-4-[3-(4-chlorobenzyl)-1,2,4-thiadiazol-5-yl]piperazine], the Emax amounted to 72%.
As to `O=C(CCc1ccccc1)N1CCN(c2nc(Cc3ccc(F)cc3)ns2)CC1` [compound 90, 1-(3-phenylpropanoyl)-4-[3-(4-fluorobenzyl)-1,2,4-thiadiazol-5-yl]piperazine], the EC50 came to 1410 nM and the Emax worked out at 73%.
Consider `Cc1ccc(Cc2nsc(N3CCN(S(=O)(=O)c4cc(Cl)ccc4Cl)C(C)C3)n2)cc1` (stereo not drawn) [compound 36, 1-[2,5-dichlorophenylsulfonyl]-4-[3-(4-methylbenzyl)-1,2,4-thiadiazol-5-yl]-2-methylpiperazine], for which the midpoint of the response, the EC50, lay at 100 nM and the Emax was 52%.
The matching figures for `CCOc1ccccc1N1CCN(c2nc(Cc3ccc(F)cc3)ns2)CC1` [compound 186, 1-(2-ethoxyphenyl)-4-[3-(4-fluorobenzyl)-1,2,4-thiadiazol-5-yl]piperazine]: 2050 nM and 94%.
For `O=C(NCCN1CCN(c2nc(Cc3ccc(F)cc3)ns2)CC1)c1cccc(F)c1` [compound 105, 3-fluoro-N-{2-[4-[3-(4-fluorobenzyl)-1,2,4-thiadiazol-5-yl]piperazin-1-yl]ethyl}benzamide], the Emax worked out at 115%.
With `Cc1ccc(Cc2nsc(N3CCN(S(=O)(=O)c4ccc(Cl)cc4)C(C)C3)n2)cc1` (stereo not drawn) [compound 34, 1-[4-chlorophenylsulfonyl]-4-[3-(4-methylbenzyl)-1,2,4-thiadiazol-5-yl]-2-methylpiperazine], a half-maximal response (EC50) required 65.7 nM and the Emax worked out at 66%.
On to `CC1CN(c2nc(Cc3ccc(F)cc3)ns2)CCN1S(=O)(=O)c1ccc(F)cc1` (stereo not drawn) [compound 59, 1-[4-fluorophenylsulfonyl]-4-[3-(4-fluorobenzyl)-1,2,4-thiadiazol-5-yl]-2-methylpiperazine], for which the Emax was 42%.
The same measure, in the same setting: to `CC1CN(c2nc(Cc3ccc(F)cc3)ns2)CCN1C(=O)c1ccccc1Cl` (stereo not drawn) [compound 166, 1-(2-chlorobenzoyl)-4-[3-(4-fluorobenzyl)-1,2,4-thiadiazol-5-yl]-2-methylpiperazine] belongs 123%.
`Cc1ccc(Cc2nsc(N3CCN(C(=O)c4cccc(F)c4)C(C)C3)n2)cc1` (stereo not drawn) [compound 156, 1-(3-fluorobenzoyl)-4-[3-(4-methylbenzyl)-1,2,4-thiadiazol-5-yl]-2-methylpiperazine]: the 50% effective concentration (EC50) worked out at 1670 nM and the Emax was 86%.
Consider `COc1cccc(Cc2nsc(N3CCN(C(=O)c4ccc(C(F)(F)F)cc4)C(C)C3)n2)c1` (stereo not drawn) [compound 168, 1-(4-trifluoromethylbenzoyl)-4-[3-(3-methoxybenzyl)-1,2,4-thiadiazol-5-yl]-2-methylpiperazine], for which the Emax is 91%.
Still for that read-out and setting: for `Cc1ccc(Cc2nsc(N3CCN(C(=O)c4ccccc4)C(C)C3)n2)cc1` (stereo not drawn) [compound 169, 1-benzoyl-4-[3-(4-methylbenzyl)-1,2,4-thiadiazol-5-yl]-2-methylpiperazine] the value was 91%.
Turning to `CC1CN(c2nc(Cc3ccccc3)ns2)CCN1C(=O)c1ccc(F)cc1` (stereo not drawn) [compound 154, 1-(4-fluorobenzoyl)-4-[3-benzyl-1,2,4-thiadiazol-5-yl]-2-methylpiperazine], the concentration for a half-maximal effect (EC50) amounted to 1580 nM and the Emax was 75%.
Taken in the same sequence, the figures for `CCCCCCc1ccc(C(=O)N2CCN(c3nc(Cc4ccc(F)cc4)ns3)CC2)cc1` [compound 121, 1-(4-hexylbenzoyl)-4-[3-(4-fluorobenzyl)-1,2,4-thiadiazol-5-yl]piperazine] were 120 nM and 64%.
Regarding `Cc1ccc(C(=O)N2CCN(c3nc(Cc4ccc(F)cc4)ns3)CC2C)cc1[N+](=O)[O-]` (stereo not drawn) [compound 172, 1-(3-nitro-4-methylbenzoyl)-4-[3-(4-fluorobenzyl)-1,2,4-thiadiazol-5-yl]-2-methylpiperazine], the Emax came to 86%.
With `O=C(Nc1cccc(F)c1)N1CCN(c2nc(Cc3ccc(F)cc3)ns2)CC1` [compound 9, N-(3-fluorophenyl)-4-[3-(4-fluorobenzyl)-1,2,4-thiadiazol-5-yl]piperazine-1-carboxamide], the EC50 was found to be 520 nM and the Emax stood at 53%.
Taken in the same sequence, the figures for `COc1ccccc1C(=O)N1CCN(c2nc(Cc3ccc(F)cc3)ns2)CC1C` (stereo not drawn) [compound 133, 1-(2-methoxybenzoyl)-4-[3-(4-fluorobenzyl)-1,2,4-thiadiazol-5-yl]-2-methylpiperazine] were 290 nM and 118%.
The matching figures for `O=C(Cc1ccc(F)cc1)NCCN1CCN(c2nc(Cc3ccc(F)cc3)ns2)CC1` [compound 107, 2-(4-fluorophenyl)-N-{2-[4-[3-(4-fluorobenzyl)-1,2,4-thiadiazol-5-yl]piperazin-1-yl]ethyl}acetamide]: 260 nM and 80%.
The matching figures for `CCc1ccccc1NC(=O)N1CCN(c2nc(Cc3ccc(F)cc3)ns2)CC1C` (stereo not drawn) [compound 12, N-(2-ethylphenyl)-4-[3-(4-fluorobenzyl)-1,2,4-thiadiazol-5-yl]-2-methylpiperazine-1-carboxamide]: 890 nM and 92%.
Take `Cc1ccc(Cc2nsc(N3CCN(S(=O)(=O)c4c(C)cc(C)cc4C)CC3)n2)cc1` [compound 37, 1-[2,4,6-trimethylphenylsulfonyl]-4-[3-(4-methylbenzyl)-1,2,4-thiadiazol-5-yl]piperazine]: the EC50 worked out at 73.1 nM and the Emax came out at 48%.
`Cc1ccc(Cc2nsc(N3CCN(S(=O)(=O)c4ccc(F)cc4)C(C)C3)n2)cc1` (stereo not drawn) [compound 58, 1-[4-fluorophenylsulfonyl]-4-[3-(4-methylbenzyl)-1,2,4-thiadiazol-5-yl]-2-methylpiperazine]: the response was half-maximal at 61 nM (EC50) and the Emax is 58%.
